The SangsterLogP compilation
Where a SMILES comes first, the peptide text is derived from it.

Assays:
[1] = method code SF-HPLC, from DOI: 10.1002/qsar.19900090302; details: pH 7.0
[2] = method code SF-AS, from DOI: 10.1002/qsar.19900090302; details: pH 7.0

logD [1]	logD [2]	SMILES
0.49		CC[C@H](C)[C@H](NC(=O)[C@@H](NC(=O)[C@@H](NC(C)=O)C(C)C)C(C)C)C(N)=O (Ac-Val-Val-Ile-NH2)
-0.14		CC(=O)N[C@@H](C)C(=O)N[C@@H](CC(C)C)C(=O)N[C@H](C(N)=O)C(C)C (Ac-Ala-Leu-Val-NH2)
-0.86		CC[C@H](C)[C@H](NC(=O)[C@@H](NC(C)=O)[C@@H](C)O)C(N)=O (Ac-Thr-Ile-NH2)
-1.85		CC(=O)NC(CC(N)=O)C(=O)NC(C(N)=O)C(C)C (stereo not drawn) (Ac-Asn-Val-NH2; configuration not given here)
	-0.5	CC(=O)N[C@@H](Cc1ccccc1)C(=O)NCC(N)=O (Ac-Phe-Gly-NH2)
-1.4		CC(=O)N[C@H](C(=O)N[C@@H](C)C(=O)N[C@@H](C)C(N)=O)C(C)C
	0.34	CC[C@H](C)[C@H](NC(=O)[C@H](Cc1ccccc1)NC(C)=O)C(=O)NCC(N)=O (Ac-Phe-Ile-Gly-NH2)
-1.3		CC(=O)N[C@@H](CC(C)C)C(=O)N[C@@H](CC(N)=O)C(N)=O
	0.26	CC(=O)N[C@@H](C)C(=O)N[C@@H](Cc1ccc(O)cc1)C(=O)N[C@@H](Cc1ccccc1)C(N)=O (Ac-Ala-Tyr-Phe-NH2)
-0.54		CC(=O)N[C@@H](C)C(=O)N[C@@H](CC(C)C)C(N)=O (Ac-Ala-Leu-NH2)
-1.33		CC(=O)NCC(=O)N[C@H](C(N)=O)C(C)C (Ac-Gly-Val-NH2)
	0.52	CC[C@H](C)[C@H](NC(C)=O)C(=O)N[C@@H](Cc1ccccc1)C(=O)N[C@@H](C)C(N)=O (Ac-Ile-Phe-Ala-NH2)
	-0.04	CC(=O)N[C@@H](C)C(=O)N[C@@H](Cc1ccc(O)cc1)C(=O)N[C@@H](CC(C)C)C(N)=O (Ac-Ala-Tyr-Leu-NH2)
	0.06	CC(=O)N[C@H](C(=O)N[C@@H](Cc1ccccc1)C(=O)N[C@@H](C)C(N)=O)C(C)C (Ac-Val-Phe-Ala-NH2)
	0.99	CC(=O)N[C@@H](Cc1c[nH]c2ccccc12)C(=O)NCC(=O)N[C@@H](Cc1ccccc1)C(N)=O
0.26		CC(=O)N[C@@H](CC(C)C)C(=O)N[C@H](C(N)=O)C(C)C (Ac-Leu-Val-NH2)
0.16		CC[C@H](C)[C@H](NC(C)=O)C(=O)N[C@H](C(N)=O)C(C)C (Ac-Ile-Val-NH2)
-0.32		CC(=O)N[C@H](C(=O)N[C@H](C(N)=O)C(C)C)C(C)C (Ac-Val-Val-NH2)
	0.36	CC(=O)N[C@@H](Cc1c[nH]c2ccccc12)C(=O)N[C@@H](C)C(=O)N[C@H](C(N)=O)C(C)C (Ac-Trp-Ala-Val-NH2)
	-0.71	CC(=O)N[C@@H](C)C(=O)NCC(=O)N[C@@H](Cc1ccccc1)C(N)=O (Ac-Ala-Gly-Phe-NH2)
0.68		CC[C@H](C)[C@H](NC(=O)[C@H](CC(C)C)NC(C)=O)C(N)=O (Ac-Leu-Ile-NH2)
-0.2		CC[C@H](C)[C@H](NC(=O)[C@@H](NC(=O)[C@H](C)NC(C)=O)C(C)C)C(N)=O
	-1.14	CC(=O)N[C@@H](CCC(N)=O)C(=O)N[C@@H](Cc1ccccc1)C(N)=O (Ac-Gln-Phe-NH2)
	-0.56	CC(=O)NCC(=O)N[C@@H](Cc1ccccc1)C(N)=O (Ac-Gly-Phe-NH2)
	0.73	CC(=O)N[C@@H](Cc1c[nH]c2ccccc12)C(=O)N[C@H](C(N)=O)C(C)C (Ac-Trp-Val-NH2)
-1.25		CC(=O)N[C@H](C(=O)N[C@H](C(N)=O)C(C)C)[C@@H](C)O (Ac-Thr-Val-NH2)

logD [1]	logD [2]	SMILES
	0.62	CC[C@H](C)[C@H](NC(=O)[C@H](Cc1c[nH]c2ccccc12)NC(C)=O)C(=O)NCC(N)=O (Ac-Trp-Ile-Gly-NH2)
-1.32		CC(=O)NC(CCC(N)=O)C(=O)NC(CC(C)C)C(N)=O (stereo not drawn) (Ac-Gln-Leu-NH2; configuration not given here)
-1.82		CC(=O)NC(C(=O)NC(CCC(N)=O)C(N)=O)C(C)C (stereo not drawn) (Ac-Val-Gln-NH2; configuration not given here)
0.24		CC(=O)N[C@@H](CC(C)C)C(=O)N[C@H](C(=O)N[C@@H](CC(C)C)C(N)=O)[C@@H](C)O (Ac-Leu-Thr-Leu-NH2)
-0.78		CC(=O)NCC(=O)N[C@@H](CC(C)C)C(N)=O
	-0.31	CC(=O)N[C@@H](Cc1c[nH]c2ccccc12)C(=O)N[C@@H](C)C(=O)N[C@@H](C)C(N)=O (Ac-Trp-Ala-Ala-NH2)
-0.67		CC(=O)N[C@H](C(=O)N[C@@H](C)C(=O)N[C@H](C(N)=O)C(C)C)C(C)C (Ac-Val-Ala-Val-NH2)
	0.54	CC(=O)N[C@@H](Cc1ccc(O)cc1)C(=O)N[C@@H](Cc1ccccc1)C(N)=O (Ac-Tyr-Phe-NH2)
-1.13		CC(=O)N[C@@H](C)C(=O)N[C@H](C(N)=O)C(C)C (Ac-Ala-Val-NH2)
-1.41		CC[C@H](C)[C@H](NC(C)=O)C(=O)N[C@@H](CC(N)=O)C(N)=O (Ac-Ile-Asn-NH2)
	-0.2	CC(=O)N[C@@H](Cc1ccc(O)cc1)C(=O)N[C@H](C(N)=O)C(C)C
-1.56		CC(=O)NCC(=O)N[C@@H](C)C(=O)N[C@H](C(N)=O)C(C)C (Ac-Gly-Ala-Val-NH2)
	0.32	CC(=O)N[C@@H](Cc1ccc(O)cc1)C(=O)N[C@@H](CC(C)C)C(N)=O (Ac-Tyr-Leu-NH2)
	0.23	CC(=O)N[C@@H](CC(C)C)C(=O)N[C@@H](CO)C(=O)N[C@@H](Cc1ccccc1)C(N)=O (Ac-Leu-Ser-Phe-NH2)
	-1.14	CC(=O)NC(CC(N)=O)C(=O)NC(Cc1ccccc1)C(N)=O (stereo not drawn) (Ac-Asn-Phe-NH2; configuration not given here)
	0.6	CC(=O)N[C@@H](Cc1ccccc1)C(=O)NCC(=O)N[C@@H](CC(C)C)C(N)=O
	0.43	CC(=O)N[C@@H](Cc1ccccc1)C(=O)N[C@H](C(N)=O)C(C)C (Ac-Phe-Val-NH2)
	-0.79	CC(=O)N[C@@H](CO)C(=O)N[C@@H](Cc1ccccc1)C(N)=O
-1.43		CC[C@H](C)[C@H](NC(=O)[C@H](CC(N)=O)NC(C)=O)C(N)=O (Ac-Asn-Ile-NH2)
-1.53		CC(=O)N[C@@H](CO)C(=O)N[C@H](C(N)=O)C(C)C (Ac-Ser-Val-NH2)
-1.85		CC(=O)NC(CCC(N)=O)C(=O)NC(C(N)=O)C(C)C (stereo not drawn) (Ac-Gln-Val-NH2; configuration not given here)
-0.45		CC[C@H](C)[C@H](NC(=O)[C@@H](NC(C)=O)C(C)C)C(=O)NCC(N)=O (Ac-Val-Ile-Gly-NH2)
-1.14		CC(=O)N[C@H](C(=O)N[C@@H](C)C(N)=O)C(C)C (Ac-Val-Ala-NH2)
	-1.03	CC(=O)N[C@@H](Cc1ccccc1)C(=O)N[C@@H](CCC(N)=O)C(N)=O
-1.23		CC(=O)NCC(=O)N[C@@H](CC(C)C)C(=O)NCC(N)=O (Ac-Gly-Leu-Gly-NH2)
